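Cultured in 96-well plates, cells were exposed to test compound for 48 hours across five concentrations. Definition used: TGI = concentration required for complete inhibition of growth.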
Key:
Assay in all cases: DTP human tumour cell line panel, 48 h
[1] = test system: EKVX NSCLC
[2] = test system: KM12 colon
[3] = test system: OVCAR-4 ovarian
[4] = test system: MALME-3M melanoma
[5] = test system: HCT-116 colon
[6] = test system: A549 NSCLC
[7] = test system: OVCAR-5 ovarian
[8] = test system: RPMI-8226 leukemia
[9] = test system: TK-10 renal
[10] = test system: OVCAR-8 ovarian
[11] = test system: MDA-MB-435
[12] = test system: CCRF-CEM leukemia
[13] = test system: LOX IMVI melanoma
[14] = test system: HOP-62 NSCLC
[15] = test system: DU-145 prostate
[16] = test system: MCF7 breast
[17] = test system: NCI-H23 lung
[18] = test system: 786-0 renal
[19] = test system: NCI/ADR-RES ovarian
[20] = test system: MOLT-4 leukemia
[21] = test system: HS 578T breast
[22] = test system: SK-MEL-28 melanoma
[23] = test system: ACHN renal
[24] = test system: HCC-2998 colon
[25] = test system: COLO 205 colon
[26] = test system: SF-539 CNS
[27] = test system: BT-549 breast
[28] = test system: SK-OV-3 ovarian
[29] = test system: NCI-H226 lung
[30] = test system: NCI-H522 lung
[31] = test system: SF-295 CNS
[32] = test system: HCT-15 colon
[33] = test system: CAKI-1 renal
[34] = test system: OVCAR-3 ovarian
[35] = test system: MDA-MB-231 breast
[36] = test system: MDA-N
[37] = test system: PC-3 prostate
[38] = test system: UO-31 renal
[39] = test system: UACC-62 melanoma
[40] = test system: SNB-19 CNS
[41] = test system: U251 CNS
[42] = test system: SF-268 CNS
[43] = test system: SNB-75 CNS
[44] = test system: A498 renal
[45] = test system: SW-620 colon
[46] = test system: T-47D breast
[47] = test system: UACC-257 melanoma
[48] = test system: SK-MEL-2 melanoma
[49] = test system: SK-MEL-5 melanoma
[50] = test system: HOP-92 NSCLC
[51] = test system: M14 melanoma
[52] = test system: RXF 393 renal
[53] = test system: SR leukemia
[54] = test system: NCI-H460 lung
[55] = test system: IGROV1 ovarian
[56] = test system: K-562 leukemia
[57] = test system: HL-60(TB) leukemia
[58] = test system: HT29 colon
[59] = test system: SN12C renal

`N#CC1=C2Sc3ccccc3N2[C@H](c2ccccc2)[C@H]2COC(=O)[C@@H]12` was tested, and the TGI [1] was greater than 100 µM, the TGI [2] was greater than 100 µM and the TGI [3] was greater than 100 µM. It also gave a TGI [4] of 81.8 µM, a TGI [5] greater than 100 µM and a TGI [6] greater than 100 µM. The TGI [7] was greater than 100 µM, the TGI [8] was 87.2 µM and the TGI [9] was greater than 100 µM. For the same compound, the TGI [10] was greater than 100 µM, the TGI [11] was greater than 100 µM and the TGI [12] was 30.7 µM. The TGI [13] was 91.6 µM, the TGI [14] was greater than 100 µM and the TGI [15] was greater than 100 µM. The TGI [16] was greater than 100 µM, the TGI [17] was greater than 100 µM and the TGI [18] was greater than 100 µM. For the same compound, the TGI [19] was greater than 100 µM, the TGI [20] was greater than 100 µM and the TGI [21] was greater than 100 µM. For the same compound, the TGI [22] was greater than 100 µM, the TGI [23] was greater than 100 µM and the TGI [24] was greater than 100 µM. The TGI [25] was greater than 100 µM, the TGI [26] was greater than 100 µM and the TGI [27] was 70.6 µM. The TGI [28] was greater than 100 µM, the TGI [29] was greater than 100 µM and the TGI [30] was 27 µM. The TGI [31] was greater than 100 µM, the TGI [32] was greater than 100 µM and the TGI [33] was 52.8 µM. It also gave a TGI [34] greater than 100 µM, a TGI [35] greater than 100 µM and a TGI [36] greater than 100 µM. The TGI [37] was greater than 100 µM, the TGI [38] was greater than 100 µM and the TGI [39] was greater than 100 µM. It also gave a TGI [40] greater than 100 µM, a TGI [41] greater than 100 µM and a TGI [42] of 74.1 µM. The TGI [43] was 97.1 µM, the TGI [44] was greater than 100 µM and the TGI [45] was greater than 100 µM. For the same compound, the TGI [46] was greater than 100 µM, the TGI [47] was greater than 100 µM and the TGI [48] was greater than 100 µM. The TGI [49] was greater than 100 µM, the TGI [50] was greater than 100 µM and the TGI [51] was greater than 100 µM. For the same compound, the TGI [52] was greater than 100 µM.
With `Cc1ccc(C)n2c1nc1ccc3ccccc3c12` the TGI [1] was greater than 100 µM, the TGI [2] was greater than 100 µM and the TGI [4] was greater than 100 µM. The TGI [6] was greater than 100 µM, the TGI [7] was greater than 100 µM and the TGI [8] was greater than 100 µM. For the same compound, the TGI [9] was greater than 100 µM, the TGI [10] was greater than 100 µM and the TGI [11] was greater than 100 µM. It also gave a TGI [12] greater than 100 µM, a TGI [14] greater than 100 µM and a TGI [15] greater than 100 µM. The TGI [16] was greater than 100 µM, the TGI [53] was greater than 100 µM and the TGI [17] was greater than 100 µM. For the same compound, the TGI [18] was greater than 100 µM, the TGI [19] was greater than 100 µM and the TGI [20] was greater than 100 µM. The TGI [21] was greater than 100 µM, the TGI [22] was greater than 100 µM and the TGI [23] was greater than 100 µM. For the same compound, the TGI [24] was greater than 100 µM, the TGI [25] was greater than 100 µM and the TGI [26] was greater than 100 µM. For the same compound, the TGI [27] was greater than 100 µM, the TGI [28] was greater than 100 µM and the TGI [29] was greater than 100 µM. The TGI [54] was greater than 100 µM, the TGI [31] was greater than 100 µM and the TGI [32] was greater than 100 µM. It also gave a TGI [55] greater than 100 µM, a TGI [34] greater than 100 µM and a TGI [56] greater than 100 µM. For the same compound, the TGI [36] was greater than 100 µM, the TGI [37] was greater than 100 µM and the TGI [38] was greater than 100 µM. For the same compound, the TGI [39] was greater than 100 µM, the TGI [40] was greater than 100 µM and the TGI [41] was greater than 100 µM. The TGI [42] was greater than 100 µM, the TGI [57] was greater than 100 µM and the TGI [43] was 86 µM. It also gave a TGI [45] greater than 100 µM, a TGI [46] greater than 100 µM and a TGI [47] greater than 100 µM. It also gave a TGI [58] greater than 100 µM, a TGI [49] greater than 100 µM and a TGI [50] greater than 100 µM. For the same compound, the TGI [51] was greater than 100 µM, the TGI [59] was greater than 100 µM and the TGI [52] was greater than 100 µM.

— PubChem BioAssay (NCI)
